Experimental data reported in patent US11053235B2, “Substituted 1,4-dihydropyrimidines for the treatment of HBV infection or HBV-induced diseases” (Janssen Sciences Ireland Unlimited Company, priority 2018, dated 2021).
Read-outs that look alike come from different tables or passages of the source.

Assays:
Type in all cases: cell-based
HBV = experiment: Anti-viral assay in HepG2.2.15 cells: HBV inhibitory activity (HBV DNA in culture medium by q-PCR); settings: HepG2.2.15 cells, 6 days treatment, HBV DNA in culture medium by q-PCR, highest concentration 10 uM, read-out: EC50
Summary of the method: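 HBV DNA released into the medium was measured by q-PCR after 6-day compound exposure of HepG2.2.15 cells (40,000/well, 2% FBS, one mid-course medium change). Eight 3-fold dilutions, highest 10 uM; EC50 derived by curve fitting.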

HepG2.2.15 cells = experiment: Cytotoxicity determination in HepG2.2.15 cells (CCK-8); settings: 6 days treatment, CCK-8, highest concentration 100 uM
Summary of the method: (§1)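 CC50 derived from CCK-8 absorbance (450 nm, 630 nm reference) after 2.5 h incubation at 37 °C. Before that, HepG2.2.15 cells (5,000/well, 2% FBS) received an 8-point, 3-fold compound series topping at 100 uM for 6 days, with one mid-treatment medium change.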

[1] = as above; settings: human, 6 days treatment, CCK-8, highest concentration 100 uM
Summary of the method: as §1

[2] = Hepatitis B virus, HepG2.2.15, 144 h

Structure (SMILES) | EC50 (HBV) | CC50 (HepG2.2.15 cells) | EC50 (HBV; [2]) | CC50 at 6 days [1]
CCOC(=O)C1=C(C2CC=C(c3nc(C(=O)O)co3)CC2)NC(c2nccs2)=NC1c1ccc(F)c(F)c1Cl (single isomer, unassigned) [Compound I-13-D, 2-(4-(6-(2-chloro-3,4-difluorophenyl)-5-(ethoxycarbonyl)-2-(thiazol-2-yl)-3,6-dihydropyrimidin-4-yl)cyclohex-1-en-1-yl)oxazole-4-carboxylic Acid] | 0.0032 µM | 6.09 µM | – | –
CCOC(=O)C1=C(C2CCC(c3cnn(C(C)CC(=O)O)c3)CC2)NC(c2nccs2)=NC1c1ccc(F)c(F)c1Cl (stereo not shown) [Compound I-31, 3-(4-(4-(6-(2-Chloro-3,4-difluorophenyl)-5-(ethoxycarbonyl)-2-(thiazol-2-yl)-3,6-dihydropyrimidin-4-yl)cyclohexyl)-1H-pyrazol-1-yl)butanoic Acid] | – | – | 0.059 µM | 3.78 µM
CCOC(=O)C1=C(C2CCC(c3cnn(C4CC(C(=O)O)C4)c3)CC2)NC(c2nccs2)=NC1c1ccc(F)c(F)c1Cl (stereo not shown) [Compound I-34, 3-(4-(4-(6-(2-Chloro-3,4-difluorophenyl)-5-(ethoxycarbonyl)-2-(thiazol-2-yl)-3,6-dihydropyrimidin-4-yl)cyclohexyl)-1H-pyrazol-1-yl)cyclobutanecarboxylic acid] | – | – | 0.055 µM | 2.79 µM
CCOC(=O)C1=C([C@H]2CC[C@H](c3nc(C(=O)O)no3)CC2)NC(c2nccs2)=NC1c1ccc(F)c(F)c1Cl (stereo partly drawn) [Compound I-45, (trans)-5-(-4-(6-(2-Chloro-3,4-difluorophenyl)-5-(ethoxycarbonyl)-2-(thiazol-2-yl)-3,6-dihydropyrimidin-4-yl)cyclohexyl)-1,2,4-oxadiazole-3-carboxylic Acid] | – | – | 0.071 µM | 16.8 µM
CCOC(=O)C1=C(C2CCN(c3ncc(C(=O)O)cn3)C(C)C2)NC(c2nccs2)=NC1c1ccc(F)c(F)c1Cl (stereo not shown) [II-34-F, 2-(4-(6-(2-chloro-3,4-difluorophenyl)-5-(ethoxycarbonyl)-2-(thiazol-2-yl)-3,6-dihydropyrimidin-4-yl)-2-methylpiperidin-1-yl)pyrimidine-5-carboxylic acid] | – | – | < 0.0046 µM | 7.96 µM
